This note sets out measurements from patent US20050282743A1, “Molecular interactions in cells” (Arbor Vita Corporation, priority 2001, published 2005).

The structures appear in SMILES notation. Peptide text beside a SMILES is read from it. * marks the point of attachment. Biotin = O=C1N[C@H]2[C@H](CS[C@H]2CCCCC(=O)*)N1

What all share (assay type): binding
For experiment [1], the target named is T1, PDZ protein (GST-PDZ fusion) (Homo sapiens, UniProt Q5T2W1).
T1 construct: made in house; host or cells: E. coli (DH5alpha, BL21 or JM109)
T1 sequence (Q5T2W1 1-519): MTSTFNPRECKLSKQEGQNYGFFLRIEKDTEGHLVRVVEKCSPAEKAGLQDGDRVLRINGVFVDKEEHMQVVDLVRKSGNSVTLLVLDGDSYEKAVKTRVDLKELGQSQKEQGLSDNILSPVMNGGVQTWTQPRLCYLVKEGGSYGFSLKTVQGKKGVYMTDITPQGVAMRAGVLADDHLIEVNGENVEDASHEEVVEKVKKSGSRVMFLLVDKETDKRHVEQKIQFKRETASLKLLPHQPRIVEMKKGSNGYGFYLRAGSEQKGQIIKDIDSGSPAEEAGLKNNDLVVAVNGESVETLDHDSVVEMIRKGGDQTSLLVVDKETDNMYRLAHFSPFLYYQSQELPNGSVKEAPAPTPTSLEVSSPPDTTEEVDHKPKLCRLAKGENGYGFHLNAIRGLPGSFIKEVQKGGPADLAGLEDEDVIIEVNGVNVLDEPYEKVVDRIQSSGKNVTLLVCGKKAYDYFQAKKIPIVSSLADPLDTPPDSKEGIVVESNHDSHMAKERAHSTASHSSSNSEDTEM
The experiment is described as follows: G' assay (10 uM PL peptide), results of TABLE 7 and TABLE 12. The conditions noted are these: PDZ PDZK-1, PDZ Domain 2. Summed up:
(§1)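 Biotin-PL peptide (N-term label), 10 uM vs GST-PDZ; protein 5 ug/ml by default. A450 nm binned: 1 = 0-1, 2 = 1-2, 3 = 2-3, 4 = 3-4, 5 = >4 on >2 repeats, 0 = no binding.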

Experiment [2] addresses T2, PDZ protein (GST-PDZ fusion) (Homo sapiens, UniProt Q9Y566).
T2 construct: made in house; host or cells: E. coli (DH5alpha, BL21 or JM109)
The description is as above. The conditions noted are these: PDZ SHANK1, PDZ Domain 1. Summed up:
as §1

Experiment [3] addresses T3, PDZ protein (GST-PDZ fusion) (Homo sapiens, UniProt Q9BYB0).
T3 construct: made in house; host or cells: E. coli (DH5alpha, BL21 or JM109)
The description is as above. Conditions: PDZ SHANK3, PDZ Domain 1. The method, boiled down:
as §1

Experiment [4] addresses T4, PDZ protein (GST-PDZ fusion) (Homo sapiens, UniProt O14745).
T4 construct: made in house; host or cells: E. coli (DH5alpha, BL21 or JM109)
T4 sequence (O14745 1-358): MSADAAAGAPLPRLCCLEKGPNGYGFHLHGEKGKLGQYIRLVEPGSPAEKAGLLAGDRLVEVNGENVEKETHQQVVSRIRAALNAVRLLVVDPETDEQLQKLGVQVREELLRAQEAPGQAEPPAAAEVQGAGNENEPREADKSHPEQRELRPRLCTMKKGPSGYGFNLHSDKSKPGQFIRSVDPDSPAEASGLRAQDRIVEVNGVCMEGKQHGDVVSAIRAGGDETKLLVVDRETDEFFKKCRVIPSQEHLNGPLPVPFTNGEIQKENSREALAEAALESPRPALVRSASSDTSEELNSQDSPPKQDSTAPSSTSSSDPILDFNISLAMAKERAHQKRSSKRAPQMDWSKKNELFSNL
Described as above. Summed up: as §1

The target in experiment [5] is T5, PDZ-domain polypeptide (GST/PDZ fusion protein) (Homo sapiens, UniProt Q5T2W1).
T5 construct: made in house; host or cells: E. coli (DH5alpha, BL21 or JM109)
The experiment is described as follows: Apparent affinity (Kd) by titration of PL peptide in the G assay. Conditions: Peptide Optimal Conc (Kd by titration of the PL peptide), PDZ PDZK-1, PDZ Domain 2. On the procedure: (§2) The third column labeled “Peptide Optimal Concentration” in the tables is a number reflective of the binding interaction between the PL protein and PDZ protein. […] The column labeled “Protein Optimal Concentration” refers to the protein concentration used to assay PL interaction (in ug/ml); a ‘0’ is indicative of 5 ug/ml protein concentration; any other value represents the concentration (in ug/ml) used to determine the dissociation constant for a given interaction.
The “A” and “G” assays described supra can be used to determine the “apparent affinity” of binding of a PDZ ligand peptide to a PDZ-domain polypeptide. Apparent affinity is determined based on the concentration of one molecule required to saturate the binding of a second molecule (e.g., the binding of a ligand to a receptor). Two particularly useful approaches for quantitation of apparent affinity of PDZ-ligand binding are provided infra.
In cases where satisfying the above criteria proves difficult, an alternative approach (infra) can be used.
(1) A fixed concentration of a PDZ-domain polypeptide and increasing concentrations of a labeled PL peptide (labeled with, for example, biotin or fluorescein, see TABLE 9 for representative peptide amino acid sequences) are mixed together in solution and allowed to react. In certain assays, peptide concentrations are 0.1 uM, 1 uM, 10 uM, 100 uM, 1 mM. In other assays, appropriate reaction times can range from 10 minutes to 2 days at temperatures ranging from 4° C. to 37° C. In some instances, the identical reaction can also be carried out using a non-PDZ domain-containing protein as a control (e.g., if the PDZ-domain polypeptide is fusion protein, the fusion partner can be used).
(2) PDZ-ligand complexes can be separated from unbound labeled peptide using a variety of methods known in the art.
(3) The PDZ-ligand complex is detected based on presence of the label on the peptide ligand using a variety of methods and detectors known to one of skill in the art. For example, if the label is fluorescein and the separation is achieved using HPSEC, an in-line fluorescence detector can be used. The binding can also be detected as described supra for the G assay.

Experiment [6] addresses T6, KIAA0807(S) (PDZ Domain 1) (Homo sapiens, UniProt Q6P0Q8).
T6 construct: made in house; host or cells: E. coli (DH5alpha, BL21 or JM109)
T6 sequence (Q6P0Q8 with tags, fused parts or gaps): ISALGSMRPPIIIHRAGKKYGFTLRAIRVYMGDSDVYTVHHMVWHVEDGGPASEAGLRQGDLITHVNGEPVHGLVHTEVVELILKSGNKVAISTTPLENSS
The experiment in a line: G' assay and Kd titration, TABLE 12. As for the experimental part:
as §2
(§3) Finally, the seventh column labeled “Classification” is another measure of the level of binding. In particular, it provides an absorbance value at 450 nm which indicates the amount of PL peptide bound to the PDZ protein. The following numerical values have the following meanings: ‘1’—A450 nm 0-1; ‘2’—A450 nm 1-2; ‘3’—A450 nm 2-3; ‘4’—A450 nm 3-4; ‘5’—A450 nm of 4 more than 2× repeated; ‘0’—A450 nm 0, i.e., not found to interact. Thus, higher numbers indicate stronger interactions.
For convenience, the assay conditions described in this section are referred to as the “G′ assay” and the “G″ assay,” with the specific conditions described in the preceding section on G assays being referred to as the “G^0 assay.” The “G′ assay” is identical to the “G^0 assay” except at step (2) the peptide concentration is 10 uM instead of 20 uM.

In another experiment the target is T7, KIAA0561 (PDZ Domain 1) (Homo sapiens, UniProt O60307).
T7 construct: made in house; host or cells: E. coli (DH5alpha, BL21 or JM109)
T7 sequence (O60307 with tags, fused parts or gaps): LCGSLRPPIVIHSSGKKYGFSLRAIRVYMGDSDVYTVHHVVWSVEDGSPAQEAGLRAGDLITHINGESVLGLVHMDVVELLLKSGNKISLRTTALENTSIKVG
The experiment in a line: G' assay, TABLE 12. Conditions: A450 nm class of biotinylated PL peptide bound; 0 in conc columns = peptide 10 uM, protein 5 ug/ml. As for the experimental part: as §2, §3
(§4) For convenience, the assay conditions described in this section are referred to as the “G′ assay” and the “G″ assay,” with the specific conditions described in the preceding section on G assays being referred to as the “G^0 assay.” The “G′ assay” is identical to the “G^0 assay” except at step (2) the peptide concentration is 10 uM instead of 20 uM. […] Correspondingly, it slightly increases the certainty that detected interactions are of sufficient affinity and half-life to be of biological importance and useful therapeutic targets.

The target in experiment [7] is T8, PDZK1 (PDZ Domain 2, 3, 4) (Homo sapiens, UniProt Q5T2W1).
T8 construct: When more than one PDZ domain was cloned, the DNA portion cloned represents the PDZ domains and the cDNA portion located between individual domains; made in house; host or cells: E. coli (DH5alpha, BL21 or JM109)
The experiment in a line: G' assay, TABLE 12. Conditions: A450 nm class of biotinylated PL peptide bound; 0 in conc columns = peptide 10 uM, protein 5 ug/ml. As for the experimental part: as §2, §3, §4

In the next experiment the target is T9, KIAA807 (Homo sapiens, UniProt Q6P0Q8).
T9 construct: made in house; host or cells: E. coli (DH5alpha, BL21 or JM109)
T9 sequence (Q6P0Q8 1104-1192 limits assumed): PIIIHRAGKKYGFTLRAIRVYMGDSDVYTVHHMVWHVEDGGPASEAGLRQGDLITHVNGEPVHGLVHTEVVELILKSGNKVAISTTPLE
The experiment in a line: G' assay, TABLE 12. The conditions noted are these: A450 nm class of biotinylated PL peptide bound; 0 in conc columns = peptide 10 uM, protein 5 ug/ml. On the procedure: as §2, §3, §4

T3 sequence (Q9BYB0 whole entry, the tested form may be a part): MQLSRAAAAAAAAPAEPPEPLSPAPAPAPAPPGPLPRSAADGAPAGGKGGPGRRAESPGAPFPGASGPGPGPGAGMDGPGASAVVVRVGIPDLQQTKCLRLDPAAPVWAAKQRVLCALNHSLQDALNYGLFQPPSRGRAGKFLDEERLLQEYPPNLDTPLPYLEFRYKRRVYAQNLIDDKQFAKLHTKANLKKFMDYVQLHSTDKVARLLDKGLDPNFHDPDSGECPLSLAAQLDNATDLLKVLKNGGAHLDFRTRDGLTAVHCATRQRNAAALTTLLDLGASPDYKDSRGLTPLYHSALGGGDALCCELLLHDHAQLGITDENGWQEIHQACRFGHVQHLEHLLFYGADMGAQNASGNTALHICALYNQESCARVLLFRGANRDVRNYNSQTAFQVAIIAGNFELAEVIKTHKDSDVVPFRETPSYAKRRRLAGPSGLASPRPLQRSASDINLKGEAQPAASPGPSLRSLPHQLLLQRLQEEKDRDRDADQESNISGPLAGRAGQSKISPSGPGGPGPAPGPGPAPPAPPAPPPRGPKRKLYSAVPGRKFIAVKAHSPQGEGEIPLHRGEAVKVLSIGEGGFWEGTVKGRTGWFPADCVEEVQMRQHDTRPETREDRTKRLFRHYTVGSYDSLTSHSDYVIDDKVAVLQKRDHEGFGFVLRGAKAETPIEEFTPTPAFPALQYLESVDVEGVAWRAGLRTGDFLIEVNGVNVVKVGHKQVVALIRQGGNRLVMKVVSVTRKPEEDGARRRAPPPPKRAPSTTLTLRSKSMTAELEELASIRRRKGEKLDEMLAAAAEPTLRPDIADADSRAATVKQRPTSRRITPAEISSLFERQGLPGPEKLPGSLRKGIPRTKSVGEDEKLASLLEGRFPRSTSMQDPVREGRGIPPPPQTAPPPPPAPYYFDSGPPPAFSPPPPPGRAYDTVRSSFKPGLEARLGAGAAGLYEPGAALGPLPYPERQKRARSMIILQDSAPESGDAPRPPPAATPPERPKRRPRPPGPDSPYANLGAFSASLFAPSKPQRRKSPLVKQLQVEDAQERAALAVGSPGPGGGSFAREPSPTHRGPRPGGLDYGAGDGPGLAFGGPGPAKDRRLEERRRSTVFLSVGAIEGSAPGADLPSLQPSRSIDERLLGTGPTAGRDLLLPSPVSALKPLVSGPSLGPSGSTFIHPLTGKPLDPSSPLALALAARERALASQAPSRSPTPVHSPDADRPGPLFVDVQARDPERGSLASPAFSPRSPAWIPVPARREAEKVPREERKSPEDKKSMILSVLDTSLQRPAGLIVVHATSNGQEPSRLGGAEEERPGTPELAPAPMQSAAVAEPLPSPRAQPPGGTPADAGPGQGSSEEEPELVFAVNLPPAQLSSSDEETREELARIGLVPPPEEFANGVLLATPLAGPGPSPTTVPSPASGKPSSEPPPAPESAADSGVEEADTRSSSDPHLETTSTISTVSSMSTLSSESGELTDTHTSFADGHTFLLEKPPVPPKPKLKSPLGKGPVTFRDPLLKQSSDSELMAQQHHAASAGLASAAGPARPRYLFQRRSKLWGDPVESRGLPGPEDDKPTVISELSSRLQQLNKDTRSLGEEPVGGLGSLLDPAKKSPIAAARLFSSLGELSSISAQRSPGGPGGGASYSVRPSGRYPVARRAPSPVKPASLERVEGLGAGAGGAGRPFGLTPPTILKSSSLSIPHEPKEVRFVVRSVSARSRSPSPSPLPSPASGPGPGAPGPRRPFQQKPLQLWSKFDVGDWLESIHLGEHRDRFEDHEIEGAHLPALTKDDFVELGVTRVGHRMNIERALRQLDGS
T2 sequence (Q9Y566 whole entry, the tested form may be a part): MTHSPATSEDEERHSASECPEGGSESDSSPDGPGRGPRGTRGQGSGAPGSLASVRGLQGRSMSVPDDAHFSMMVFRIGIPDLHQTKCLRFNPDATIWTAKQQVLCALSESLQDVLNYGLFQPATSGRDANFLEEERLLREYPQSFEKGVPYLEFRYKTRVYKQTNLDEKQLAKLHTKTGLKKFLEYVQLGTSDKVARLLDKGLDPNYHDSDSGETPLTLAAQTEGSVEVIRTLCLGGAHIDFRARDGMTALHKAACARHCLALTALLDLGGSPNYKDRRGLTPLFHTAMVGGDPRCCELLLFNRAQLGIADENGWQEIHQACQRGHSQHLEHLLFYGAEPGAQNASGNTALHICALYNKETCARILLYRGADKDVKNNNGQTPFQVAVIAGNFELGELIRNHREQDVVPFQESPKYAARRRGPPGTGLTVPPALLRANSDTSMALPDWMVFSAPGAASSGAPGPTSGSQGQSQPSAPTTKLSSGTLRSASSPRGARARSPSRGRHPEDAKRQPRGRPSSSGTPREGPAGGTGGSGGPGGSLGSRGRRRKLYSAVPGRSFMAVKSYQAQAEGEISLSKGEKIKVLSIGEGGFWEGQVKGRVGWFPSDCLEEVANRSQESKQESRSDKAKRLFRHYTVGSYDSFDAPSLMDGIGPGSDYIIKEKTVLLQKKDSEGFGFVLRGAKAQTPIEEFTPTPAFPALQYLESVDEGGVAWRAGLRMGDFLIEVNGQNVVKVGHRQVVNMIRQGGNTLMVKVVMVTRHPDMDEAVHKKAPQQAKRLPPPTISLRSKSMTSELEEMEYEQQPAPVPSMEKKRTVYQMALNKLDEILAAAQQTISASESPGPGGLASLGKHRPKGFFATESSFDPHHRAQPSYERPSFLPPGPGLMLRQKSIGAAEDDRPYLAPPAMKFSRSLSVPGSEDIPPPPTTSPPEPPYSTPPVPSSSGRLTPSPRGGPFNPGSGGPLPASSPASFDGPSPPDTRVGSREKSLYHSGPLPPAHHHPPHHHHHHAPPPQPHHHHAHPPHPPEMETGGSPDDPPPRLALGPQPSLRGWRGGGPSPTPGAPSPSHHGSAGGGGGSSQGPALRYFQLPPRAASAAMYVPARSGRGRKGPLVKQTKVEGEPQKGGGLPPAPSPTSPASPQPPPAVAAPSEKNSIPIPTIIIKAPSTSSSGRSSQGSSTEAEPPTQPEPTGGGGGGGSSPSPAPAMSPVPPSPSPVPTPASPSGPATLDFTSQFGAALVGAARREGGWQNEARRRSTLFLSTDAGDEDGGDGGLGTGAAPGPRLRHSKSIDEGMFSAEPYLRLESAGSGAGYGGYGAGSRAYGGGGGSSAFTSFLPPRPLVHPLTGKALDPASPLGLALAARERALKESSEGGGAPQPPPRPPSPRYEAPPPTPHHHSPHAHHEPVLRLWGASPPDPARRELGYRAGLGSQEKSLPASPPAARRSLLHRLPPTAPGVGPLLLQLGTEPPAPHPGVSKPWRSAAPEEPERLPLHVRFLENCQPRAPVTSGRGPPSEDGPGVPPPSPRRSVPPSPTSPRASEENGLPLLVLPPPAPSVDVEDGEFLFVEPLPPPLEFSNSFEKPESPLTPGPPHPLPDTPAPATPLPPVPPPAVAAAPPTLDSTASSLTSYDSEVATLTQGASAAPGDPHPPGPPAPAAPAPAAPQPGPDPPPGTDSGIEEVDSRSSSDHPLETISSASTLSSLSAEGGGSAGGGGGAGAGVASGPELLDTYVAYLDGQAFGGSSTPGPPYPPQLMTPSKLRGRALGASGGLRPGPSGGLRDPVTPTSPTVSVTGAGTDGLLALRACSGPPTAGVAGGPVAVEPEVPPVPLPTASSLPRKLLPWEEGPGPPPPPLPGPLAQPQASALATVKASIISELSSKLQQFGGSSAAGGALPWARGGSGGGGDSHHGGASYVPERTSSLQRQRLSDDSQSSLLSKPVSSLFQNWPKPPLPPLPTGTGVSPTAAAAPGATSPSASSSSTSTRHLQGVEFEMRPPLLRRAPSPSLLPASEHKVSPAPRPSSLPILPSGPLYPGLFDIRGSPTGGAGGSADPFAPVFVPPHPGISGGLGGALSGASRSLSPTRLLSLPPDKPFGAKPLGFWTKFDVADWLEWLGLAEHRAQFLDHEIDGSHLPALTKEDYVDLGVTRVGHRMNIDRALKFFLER

Consider `CC(C)C[C@H](NC(=O)[C@H](CO)NC(=O)[C@H](CO)NC(=O)[C@H](CCCNC(=N)N)NC(=O)[C@H](CCCNC(=N)N)NC(=O)[C@H](Cc1c[nH]c2ccccc12)NC(=O)[C@H](CO)NC(=O)[C@@H]1CCCN1C(=O)CCCC[C@@H]1SC[C@@H]2NC(=O)N[C@@H]21)C(=O)N[C@@H](CO)C(=O)N[C@@H](CCC(=O)O)C(=O)N[C@@H](CO)C(=O)N[C@@H](CCC(=O)O)C(=O)N[C@@H](CC(N)=O)C(=O)N[C@@H](C)C(=O)N[C@H](C(=O)N[C@@H](CO)C(=O)N[C@@H](CC(C)C)C(=O)N[C@H](C(=O)N[C@H](C(=O)N[C@@H](Cc1ccccc1)C(=O)O)[C@@H](C)O)[C@@H](C)O)[C@@H](C)O` [BLR-1] (Biotin-PSWRRSSLSESENATSLTTF-OH; C-terminus assumed), for which the Classification in experiment [1] was 1 (A450 nm 0-1); in experiment [2], 3 (A450 nm 2-3); in [3] it was 3 (A450 nm 2-3); in experiment [4] (PDZ EBP50, PDZ Domain 1), 3 (A450 nm 2-3); in [4] (PDZ EBP50, PDZ Domain 2) it was 3 (A450 nm 2-3); in [6] (A450 nm class of biotinylated PL peptide bound, 0 in conc columns = peptide 10 uM, protein 5 ug/ml), 2 (A450 nm 1-2). The Classification at KIAA0561 (PDZ Domain 1) is 1 (A450 nm 0-1); in [7] it was 1 (A450 nm 0-1); at KIAA807, 2 (A450 nm 1-2). Besides, the Kd in [5] was 2 µM; in experiment [6], 1 µM.
